For one test, the system named is carrageenan paw edema. As to the kind of experiment: rat carrageenan paw edema assay. The format is in vivo, rat (Sprague-Dawley). As to conditions: 50 mg/kg peroral. On the procedure: The compounds of the invention are further tested in the rat carrageenan paw edema assay to determine their ability to inhibit the acute inflammatory response.
140-180 g Male Sprague-Dawley rats, in groups of 6 animals are injected subcutaneously in the right paw with 0.1 mL of 1% carrageenan at zero time. Mercury plethysmographic readings (mL) of the paw are made at zero time and 3 hours later. Test compounds are suspended or dissolved in 0.5% methylcellulose and given perorally 1 hour prior to carrageenan administration.
The increase in paw volume (edema in mL) produced by the carrageenan is measured. Paw edema is calculated (3 hour volume minus zero time volume), and percent inhibition of edema is determined. Unpaired Student's t-test is used to determine statistical significance.
On the technique in general: The carrageenan paw model is a standard test of acute inflammation.

Test [1] relates to purified PLA2, from the diamond back cotton mouth snake (A. piscivorus piscivorus). As to the kind of experiment: in vivo PLA2 murine paw edema assay. Set-up: species or system A. piscivorus piscivorus PLA2 in CD-1 mice. On the procedure: The ability of the compounds of the invention to inhibit paw edema induced by the exogenous administration of PLA2 is measured in the in vivo PLA2 murine paw edema assay.
Non-fasted, male CD-1 mice (8 weeks old; 31-36 grams) are placed in plastic boxes in groups of six. The right hind paw volume is measured using mercury plethysmography (zero time). Compounds are dosed orally (0.5 mL of 0.5% Tween-80) 1 or 3 hours prior to PLA2 injection or intravenously (0.2 mL in 0.3% dimethylsulfoxide/saline) 3 minutes prior to PLA2 injection. A solution of purified PLA2, from the diamond back cotton mouth snake (A. piscivorus piscivorus) is prepared in saline at a concentration of 6 μg/mL. Fifty (50) μL (0.3 μg) of this PLA2 solution is injected subcutaneously into the right hind paw with a plastic 1 mL plastic syringe (27 gauge, 1" needle). Paw volume of the injected paw is measured again at 10 minutes, 30 minutes and 60 minutes after PLA2 injection. Animals are euthanized with CO2 at the completion of the study.
The paw edema is calculated by subtracting the zero time volume from the volume recorded at each time period. Mean paw edema for each treatment group is then calculated and expressed as (μL±S.E.). Drug effects are expressed as a percent change from control (vehicle) values. Statistical significance is determined by a one-way analysis of variance with LSD comparison to control (p<0.05). ED50 's are determined using […].

Test [2] concerns lipoxygenase (LTB4 or 5HETE synthesis). As to the kind of experiment: inhibition of LTB4 and 5-HETE synthesis by rat glycogen-elicited polymorphonuclear leukocytes. The format is cell-based, rat (female Wistar). Conditions: Leukocyte; at 10 μM; rat PMN; + with * denotes potentiation; read-out: % Inhibition LTB4. The text has this: This is especially true with respect to 5,12-diHETE, which is also denoted as LTB4 [see Ford-Hitchinson, J. Roy. Soc. Med., 74, 831 (1981)]. Compounds which inhibit the PLA2 -mediated release of arachidonic acid thereby effectively prevent the oxidation of arachidonic acid to the various leukotriene products via the lipoxygenase cascade. Accordingly, the specificity of action of PLA2 inhibitors can be determined by the activity of test compounds in this assay, which measures the ability of compounds to inhibit the synthesis of LTB4 and 5-HETE by rat glycogen-elicited polymorphonuclear leukocytes (PMN) in the presence of exogenous substrate.
(§1) Rat polymorphonuclear leukocytes (PMNs) are obtained from female Wistar rats (150-200 g) which receive an injection of 6% glycogen (10 ml i.p.). Rats are sacrificed 18-24 hours post injection by CO2 asphyxiation and the elicited cells are harvested by peritoneal lavage using physiological saline (0.9% NaCl). The exudate is centrifuged at 400 xg for 10 minutes. The supernatant fluid is discarded and the cell pellet is resuspended to a concentration of 2.0×10^7 cells/mL in HBSS containing Ca^++ and Mg^++ and 10 μM L-cysteine.
(§2) To 1 mL aliquots of cell suspension, test drugs or vehicle are added, then preincubated at 37° C. for 10 minutes. A23187 (1 μM), [^3 H]-AA (3.0 μCi/mL) and unlabeled AA (1 μM) are then added and the samples are further incubated for 10 minutes. The reaction is terminated by centrifugation and pelleting cells. Supernatants are then analyzed by HPLC analysis on a 15 cm×4.6 mm ID supelcosil LC-18 (Supelco)(3M) column, using a two solvent system at a flow rate of 1.4 mL total flow as follows:
Injections: 140 μL of each supernatant is injected directly onto column and ^3 H arachidonic acid metabolites are monitored using an on-line radioactivity detector (Ramona, IN/US, Fairfield, N.J.).
Co-chromatography with standard [^3 H] leukotriene B4 (LTB4) in medium of stimulated PMN exposed to drug is compared to that found in medium of stimulated cells exposed to no drug, generating percent inhibition.
Results are expressed as percent inhibition at a given compound dose or as an IC50 value.

The target of a further test is T1, human platelet PLA2 (Homo sapiens, UniProt P14555).
T1 construct: platelet acid extract PLA2; from tissue; host or cells: human platelets, semipurified acid extract
T1 sequence (P14555 21-144): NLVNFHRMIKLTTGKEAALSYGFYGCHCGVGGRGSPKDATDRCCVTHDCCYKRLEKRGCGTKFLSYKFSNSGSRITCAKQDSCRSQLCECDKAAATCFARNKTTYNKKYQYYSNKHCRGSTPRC
As to the kind of experiment: in vitro isolated phospholipase A2 assay, human platelet PLA2. The format is biochemical. As to conditions: at 10 μM; + values given without explanation; read-out: % Inhibition HP (human platelet). Put shortly: (§3)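 PLA2 from semipurified human platelet acid extract or purified human synovial fluid, preincubated 30 min at room temperature with compound. ³H-arachidonate-labelled E. coli substrate then added in Tris-HCl pH 7.5, with enzyme giving about 12% hydrolysis. Reaction ran 10 min at 37° C; released arachidonic acid recovered on NH2 columns and measured by β-counting.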

Test [3] has as its system cyclooxygenase (PGE2 or TxB2 synthesis). As to the kind of experiment: inhibition of synthesis of cyclooxygenase products PGE2 and TxB2 by rat polymorphonuclear leukocytes. It is filed as cell-based, rat (female Wistar). As to conditions: Leukocyte; at 10 μM; rat PMN; + with * denotes potentiation; read-out: % Inhibition TxB2. On the procedure:
as §1, §2
In this assay, the procedure of Example 58 is carried out as described. However, in order to determine cyclooxygenase activity, the samples are co-chromatographed with authentic reference [^3 H]-TxB2 or [^3 H]-PGE2.
The results are calculated as in Example 58 and presented below: […]

Test [4] has as its target T2, human synovial fluid PLA2 (Homo sapiens, UniProt P14555).
T2 construct: Purified human synovial fluid; from tissue; host or cells: human synovial fluid
T2 sequence (P14555 21-144): T1 sequence (P14555 21-144)
As to the kind of experiment: in vitro isolated phospholipase A2 assay, human synovial fluid PLA2. It is filed as biochemical. As to conditions: for IC50: Table IV, read-out: IC50 HSF (human synovial fluid); for inhibition at 10 µM: + values given without explanation, read-out: % Inhibition HSF (human synovial fluid). The essentials: as §3

The test system of test [5] is lipoxygenase and/or cyclooxygenase pathways of arachidonic acid metabolism. As to the kind of experiment: in vivo murine zymosan peritonitis assay. More on the design: species or system mouse (CD-1). Here is the method: The compounds of the invention are evaluated for their ability to inhibit the lipoxygenase and/or cyclooxygenase pathways of arachidonic acid metabolism in the in vivo murine zymosan peritonitis assay.
Male CD-1 mice (8 weeks old) are placed in plastic boxes in groups of six. Animals are injected with 1 mL i.p. of either 1% zymosan in pyrogen free 0.9% saline or saline (unstimulated control). Compounds are dosed orally 1 hour prior to zymosan injection. Twenty minutes after zymosan injection, the mice are asphyxiated by CO2 inhalation and the peritoneal cavity is lavaged with 2 mL ice cold Hanks Balanced Salt Solution (HBSS) without CaCl2, MgSO4. 7H2 O and MgCl2.6H2 O. Peritoneal lavage fluid from each mouse is removed by syringe and placed in 5 mL plastic test tubes put on ice and volume is noted. Preparation of samples for evaluation by ELISA is as follows: Samples are centrifuged at 800 xg for 15 minutes; 1 mL of the supernatant is added to 8 mL ice cold methanol and kept at -70° C. overnight to precipitate protein; and samples are then centrifuged at 800 xg for 15 minutes, followed by a drying procedure in a Savant speed vac concentrator. The samples are reconstituted with 1 mL ice cold ELISA buffer and stored at -70° C. until assayed. The assay for eicosanoids (LTC4 and 6-keto-PGF1α) is performed according to conventional ELISA procedures.
Compounds to be tested orally are suspended in 0.5% Tween 80. Compounds to be tested intraperitoneally are suspended in 0.5% methylcellulose in 0.9% saline.
The total metabolite level in lavage fluid/mouse is calculated and the significance is determined by a one-way analysis of variance with LSD comparisons to control (p≤0.05). Drug effects are expressed as a percent change from control values.

For a further test, the system named is AA-induced ear edema. As to the kind of experiment: arachidonic acid (AA)-induced murine ear edema assay. It is filed as in vivo, mouse (Swiss Webster). As to conditions: for ED50: Mus musculus, 1 h, oral.
Another test deals with TPA-induced ear edema. As to the kind of experiment: 12-o-tetradecanoylphorbol acetate (TPA)-induced murine ear edema assay. It is filed as in vivo, mouse (Swiss Webster). As to conditions: oral, TPA-induced. Here is the method: The ability of the compounds of the invention to inhibit inflammatory responses is examined in the in vivo arachidonic acid (AA)/12-o-tetradecanoylphorbol acetate (TPA)-induced murine ear edema assay.
Swiss Webster female mice (Buckshire), approximately 8 weeks old are placed into plastic boxes in groups of six. Eight groups of mice receive AA topically on the right ear, and another 8 groups receive TPA topically on the right ear. AA and TPA are dissolved in acetone at concentrations of 100 mg/ml and 100 μg/ml respectively. The phlogistics are applied to the right ear by the means of an automatic pipet. Volumes of 10 μl are applied to the inner and outer surfaces of the ear. Each mouse receives either 2 mg/ear AA or 2 μg/ear TPA. The left ear (control) receives acetone delivered in the same manner. Topical and subcutaneous dosing regimens are as follows 1) drugs are given 30 minutes prior to AA treatment and 2) drugs are given 30 minutes after treatment with TPA.
Measurements are taken with Oditest calipers, 0-10 mm with 0.01 graduations. The right and left ears are measured after 1 hr AA-induced inflammation and 4 hours after TPA-induced inflammation.
The difference between right and left ear thickness is calculated and the significance is determined by a one way analysis of variance with Dunnett's comparisons to control (P=0.05). Drug effects are expressed as a percent change from control values: [formula]

One may read the % Inhibition as the relative decrease from the control value, in per cent. A high value points to a strong effect. For orientation: inhibition means the change of the read-out against control, counted positive when it falls. Usually IC50 stands for the concentration at which inhibition is half-maximal. As for `O=C(/C=C/c1ccc(Cl)cc1)C1=C(O)COC1=O` [Example 7, (E)-4-Hydroxy-3-(3-(4-chlorophenyl)-1-oxo-2-propenyl)-2(5H)-furanone], the “% Inhibition” value in the test with carrageenan paw edema is on record as 47%. In addition, the “% Change in Edema 10 min” value in test [1] (10 mg/kg i.v.) is -19%; in test [1] (100 mg/kg p.o.), -24%. Further, the “% Change in Edema 30 min” value is listed as “+39%” in test [1] (10 mg/kg i.v.) and -4% in test [1] (100 mg/kg p.o.). Moreover, the “% Change in Edema 60 min” value in [1] (10 mg/kg i.v.) is given as “+15%”; in test [1] (100 mg/kg p.o.) it was -9%. For the same compound, the inhibition at 10 µM in [2] was found to be 13%; at human platelet PLA2, 0%; in [3] it was 18%; in [4], 98%. For the same compound, the 50% inhibitory concentration (IC50) in [4] amounted to 1800 nM.
As for `COc1ccc2c(c1)c(CC(=O)O)c(C)n2C(=O)c1ccc(Cl)cc1` [indomethacin], in test [5] (10 mg/kg p.o.), the “% Inhibition LTC4” value is listed as “+25%”. For the same compound, the “ED50 LTC4” value in test [5] (p.o.) is on record as “Not Active”. Further, the “Oral ED50 (AA)” value with AA-induced ear edema is “inactive at 10”. The “Oral ED50 (TPA)” value in the test with TPA-induced ear edema is “inactive at 10”.
The term ED50 denotes the dose that gives a 50% effect, or the effect in half of the subjects. Take `NC1=NN(c2cccc(C(F)(F)F)c2)CC1` [BW 755c, reference compound]: the ED50 in the test on AA-induced ear edema worked out at 65 mg/kg; with TPA-induced ear edema (Mus musculus, 4 h, read-out: Oral ED50 (TPA)), 88 mg/kg. The “ED50 at +10 min.” value in test [1] (p.o., at +10 min) was 50 mg/kg.
Turning to `O=C(/C=C/c1cccc([N+](=O)[O-])c1)C1=C(O)COC1=O` [Example 12, (E)-4-Hydroxy-3-(3-(3-nitrophenyl)-1-oxo-2-propenyl)-2 (5H)-furanone], in the test with carrageenan paw edema, the “% Inhibition” value is recorded as 30%. Also, the “% Change in Edema 10 min” value in test [1] (10 mg/kg i.v.) is on record as -11%; in test [1] (100 mg/kg p.o.), -27%. Besides, the “% Change in Edema 30 min” value in test [1] (10 mg/kg i.v.) is reported as -19%; in [1] (100 mg/kg p.o.), -33%. The “% Change in Edema 60 min” value is recorded as “+24%” in test [1] (10 mg/kg i.v.) and -2% in [1] (100 mg/kg p.o.). Moreover, the inhibition at 10 µM in test [2] was determined as 5%; on human platelet PLA2, 11%; in test [3], 9%; in test [4] it was 82%. For the same compound, the IC50 in test [4] was determined as 2000 nM.
Turning to `O=C1CCN(c2ccccc2)N1` [Phenidone], the 50% effect level with AA-induced ear edema (ED50) was put at a dose of 85 mg/kg.

The values above are taken from patent publication US5242945A, “Tetronic and thiotetronic acid derivatives as phospholipase A2 inhibitors” (American Home Products Corporation, priority 1991, dated 1993).
